One experiment concerns the target CDK4/Cyclin D1 (Homo sapiens (Human), UniProt P11802). The experiment is described as follows: CDK4 filtration kinase assay. In kind it is biochemical. As to conditions: CDK4/Cyclin D1, Rb fragment substrate, [33P]-ATP filtration assay. How it is done: The CDK4 and CDK1 inhibitory activity of the CDK4/6-FLT3 inhibitors was determined with a filtration kinase assay. The compounds, kinase and substrate diluted in the kinase buffer (20 mM Tris, pH7.4, 50 mM NaCl, 1 mM DTT, 0.1% BSA) were sequentially added to a 96-well Multiscreen HTS filtration plate (Millipore). The final 100 μL reaction mixture in each well contained 0.3 μg of CDK4/Cyclin D1 or CDK1/Cyclin B (Cell Signaling Technology), 1 μg of Rb fragment (aa773-928, Millipore) for the CDK4 assay or 5 μg of histone H1 for the CDK1 assay and 1 μCi of [^33P]-ATP. The mixture was incubated at room temperature for 1 hour. The proteins in the reaction were then precipitated and washed with cold TCA solution using an aspiration/filtration vacuum system. The plates were dried at room temperature, and the retained radioactivity was measured by scintillation counting.
(§1) IC50 values of the compounds in the above assays were determined by non-linear regression analysis using Prism (GraphPad Software).

The subject of the next experiment is MOLM13 cells. The experiment is described as follows: [14C]-thymidine incorporation cell proliferation assay, MOLM13. In kind it is cell-based, human. How it is done:
The cell proliferation inhibition potency of the CDK4/6-FLT3 inhibitors was determined by using a [^14C]-thymidine incorporation assay. Exponentially growing cells (MOLM-13, Colo-205, etc.) were seeded in a 96-well Cytostar T plate (GE Healthcare Biosciences) at a density of 5×10^3 cells/well and incubated overnight. Serially diluted compounds and 0.1 μCi of [^14C]-thymidine (GE Healthcare Biosciences) were added to each well on the following day. After 72 hour incubation, isotope incorporation was determined with a β plate counter (Wallac). MOLM13 is a human AML tumor cell line expressing FLT3, FLT3^ITD and wild type Rb.
as §1

In experiment [1] the target is FLT3 enzyme (GST-FLT3 fusion) (Homo sapiens (Human), UniProt P36888). In words: FLT3 HTRF kinase assay. In kind it is biochemical. To be noted: 116 μM ATP. As to the method:
The FLT3 inhibitory activity of the CDK4/6-FLT3 inhibitors was determined with a HTRF kinase assay. The FLT3 enzyme (GST-FLT3 fusion) was purchased from Carna Biosciences. An ULight-labeled synthetic peptide derived from human Janus kinase 1 (aa1015-1027, ULight-JAK1, PerkinElmer) was utilized as the phosphoacceptor substrate. The assay was conducted in a 384-well white OptiPlate (PerkinElmer). The 20 μL reaction mixture contained 50 nM ULight-JAK1, 116 μM ATP, 0.0385 ng/μL FLT3 and dilutions of test compounds in the kinase buffer (50 mM Hepes, pH 7.6, 1 mM EGTA, 10 mM MgCl2, 2 mM DTT, and 0.005% Tween 20). The reaction was allowed to proceed for 1 hour at room temperature and was stopped by adding 20 μL of 10 mM EDTA, 2 nM LANCE® Eu-W1024 anti-phospho-tyrosine antibody in LANCE® detection buffer (PerkinElmer). The plates were incubated at room temperature for 2 hours after addition of detection reagents and then read on an Envision multimode reader (PerkinElmer).
as §1

The mark [2] stands for this setting: Homo sapiens, MOLM-13, 72 hour incubation.

Bounds are passed on as bounds.

The source of these data is patent US8623885B2, “Fused tricyclic dual inhibitors of CDK 4/6 and FLT3” (Amgen Inc., priority 2011, dated 2014).

FLT3 enzyme (GST-FLT3 fusion), sequence (P36888 27-993): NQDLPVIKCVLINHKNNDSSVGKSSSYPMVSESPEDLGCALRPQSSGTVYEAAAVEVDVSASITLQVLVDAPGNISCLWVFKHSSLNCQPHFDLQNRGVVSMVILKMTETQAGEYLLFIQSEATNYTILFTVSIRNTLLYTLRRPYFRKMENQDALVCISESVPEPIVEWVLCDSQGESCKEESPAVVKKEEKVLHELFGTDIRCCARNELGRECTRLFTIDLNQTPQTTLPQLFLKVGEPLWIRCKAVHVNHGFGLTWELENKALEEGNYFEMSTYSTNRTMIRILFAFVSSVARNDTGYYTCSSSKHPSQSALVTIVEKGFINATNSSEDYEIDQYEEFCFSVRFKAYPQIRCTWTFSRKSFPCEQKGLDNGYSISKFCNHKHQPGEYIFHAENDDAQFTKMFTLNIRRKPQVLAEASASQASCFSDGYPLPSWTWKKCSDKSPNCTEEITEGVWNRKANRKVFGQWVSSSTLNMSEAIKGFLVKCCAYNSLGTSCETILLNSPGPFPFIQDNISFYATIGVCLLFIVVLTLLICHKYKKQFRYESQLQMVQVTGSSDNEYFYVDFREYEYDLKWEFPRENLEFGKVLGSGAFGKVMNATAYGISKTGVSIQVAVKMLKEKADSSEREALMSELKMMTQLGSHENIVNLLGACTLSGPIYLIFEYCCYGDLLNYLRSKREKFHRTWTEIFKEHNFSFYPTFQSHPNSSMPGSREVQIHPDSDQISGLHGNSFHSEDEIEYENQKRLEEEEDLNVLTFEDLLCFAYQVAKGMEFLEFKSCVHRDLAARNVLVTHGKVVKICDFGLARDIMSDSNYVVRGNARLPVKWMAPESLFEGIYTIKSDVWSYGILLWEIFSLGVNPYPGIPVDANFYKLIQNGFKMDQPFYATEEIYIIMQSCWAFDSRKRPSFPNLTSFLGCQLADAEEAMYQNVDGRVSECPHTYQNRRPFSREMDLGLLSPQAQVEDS
CDK4/Cyclin D1, sequence (P11802 whole entry, the tested form may be a part): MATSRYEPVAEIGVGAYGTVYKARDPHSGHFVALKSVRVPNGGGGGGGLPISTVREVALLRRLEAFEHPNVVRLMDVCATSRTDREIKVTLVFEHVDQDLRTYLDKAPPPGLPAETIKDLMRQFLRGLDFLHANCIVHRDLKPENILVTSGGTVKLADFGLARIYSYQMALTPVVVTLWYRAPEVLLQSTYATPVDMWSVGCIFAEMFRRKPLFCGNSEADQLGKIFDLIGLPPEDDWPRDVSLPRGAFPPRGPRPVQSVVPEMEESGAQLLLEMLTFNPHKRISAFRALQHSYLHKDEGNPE
CDK4/Cyclin D1, sequence (P24385 whole entry partner, the tested form may be a part): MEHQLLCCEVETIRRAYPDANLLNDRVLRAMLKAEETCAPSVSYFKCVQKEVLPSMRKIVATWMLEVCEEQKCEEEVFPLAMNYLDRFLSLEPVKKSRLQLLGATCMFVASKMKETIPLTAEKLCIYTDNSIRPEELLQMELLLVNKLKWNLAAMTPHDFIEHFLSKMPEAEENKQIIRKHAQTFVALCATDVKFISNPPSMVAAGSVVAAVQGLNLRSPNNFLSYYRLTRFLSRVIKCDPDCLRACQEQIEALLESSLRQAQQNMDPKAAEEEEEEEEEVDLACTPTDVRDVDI

For the molecule `COc1cc2c3cnc(Nc4ccc5c(n4)CCN(C(=O)CO)C5)nc3n([C@H]3CC[C@H](C)CC3)c2cn1` [Example 20, 2-Hydroxy-1-(2-((6-methoxy-9-((1r,4r)-4-methylcyclohexyl)-9H-pyrido[4′,3′:4,5]-pyrrolo[2,3-d]pyrimidin-2-yl)amino)-7,8-dihydro-1,6-naphthyridin-6(5H)-yl)ethanone], the 50% inhibitory concentration (IC50) worked out at 847 nM against CDK4/Cyclin D1, 208 nM with MOLM13 cells (setting [2]) and 144 nM in experiment [1].

Take `C[C@H]1CC[C@H](n2c3cnccc3c3cnc(Nc4ccc5c(n4)CCNC5)nc32)CC1` [Example 1, 9-((1r,4r)-4-Methylcyclohexyl)-N-(5,6,7,8-tetrahydro-1,6-naphthyridin-2-yl)-9H-pyrido[4′,3′:4,5]pyrrolo[2,3-d]pyrimidin-2-amine]: the IC50 came out at 2.1 nM against CDK4/Cyclin D1, 15.2 nM with MOLM13 cells (setting [2]) and 1.3 nM in experiment [1].

For the molecule `C[C@H]1CC[C@H](n2c3cnccc3c3cnc(Nc4cc5c(cn4)CCNC5)nc32)CC1` [Example 11, 9-((1r,4r)-4-Methylcyclohexyl)-N-(5,6,7,8-tetrahydro-2,6-naphthyridin-3-yl)-9H-pyrido[4′,3′:4,5]pyrrolo[2,3-d]pyrimidin-2-amine], the IC50 against CDK4/Cyclin D1 is 257 nM; with MOLM13 cells (setting [2]) it was more than 3000 nM; in experiment [1], 73.7 nM.

In the case of `C[C@H]1CC[C@H](n2c3cnccc3c3cnc(Nc4ccc5c(n4)CCN(C(=O)C(=O)O)C5)nc32)CC1` [Example 6, 2-(2-((9-((1r,4r)-4-Methylcyclohexyl)-9H-pyrido[4′,3′:4,5]pyrrolo[2,3-d]pyrimidin-2-yl)amino)-7,8-dihydro-1,6-naphthyridin-6(5H)-yl)-2-oxoacetic acid], the concentration for half-maximal inhibition (IC50) on CDK4/Cyclin D1 was 120 nM; in the experiment on MOLM13 cells (setting [2]), 46 nM; in experiment [1], 3.3 nM.

On to `C[C@H]1CC[C@H](n2c3cnccc3c3cnc(Nc4ccc5c(n4)CCN(CCCO)C5)nc32)CC1` [Example 4, 3-(2-((9-((1r,4r)-4-Methylcyclohexyl)-9H-pyrido[4′,3′:4,5]pyrrolo[2,3-d]pyrimidin-2-yl)amino)-7,8-dihydro-1,6-naphthyridin-6(5H)-yl)propan-1-ol], for which the results for the 50% inhibitory concentration (IC50) (on CDK4/Cyclin D1; in the experiment on MOLM13 cells (setting [2]); in experiment [1]) were 4.6 nM, 21.1 nM and 2 nM, respectively.

For `CS(=O)(=O)CCN1CCc2nc(Nc3ncc4c5ccncc5n([C@H]5CC[C@H](C)CC5)c4n3)ccc2C1` [Example 8, 9-((1r,4r)-4-Methylcyclohexyl)-N-(6-(2-(methylsulfonyl)ethyl)-5,6,7,8-tetrahydro-1,6-naphthyridin-2-yl)-9H-pyrido[4′,3′:4,5]pyrrolo[2,3-d]pyrimidin-2-amine], the IC50 amounted to 2.4 nM against CDK4/Cyclin D1, 9.1 nM in the experiment on MOLM13 cells (setting [2]) and 36.1 nM in experiment [1].

As for `CC(=O)N1Cc2ccc(Nc3ncc4c5ccncc5n([C@H]5CC[C@H](C)CC5)c4n3)nc2[C@H](C)C1` (single isomer, unassigned) [Example 18a, 1((R)-8-Methyl-2-((9-((1r,4R)-4-methylcyclohexyl)-9H-pyrido[4′,3′:4,5]pyrrolo[2,3-d]pyrimidin-2-yl)amino)-7,8-dihydro-1,6-naphthyridin-6(5H)-yl)ethanone or 1((S)-8-methyl-2-((9-((1r,4S)-4-methylcyclohexyl)-9H-pyrido[4′,3′:4,5]pyrrolo[2,3-d]pyrimidin-2-yl)amino)-7,8-dihydro-1,6-naphthyridin-6(5H)-yl)ethanone], the concentration for half-maximal inhibition (IC50) at CDK4/Cyclin D1 was determined as 18.8 nM; in the experiment with MOLM13 cells (72 hour incubation), 24.2 nM; in experiment [1], 1.6 nM.

As for `CC(=O)N1CCc2nc(Nc3ncc4c5ccncc5n([C@H]5CC[C@H](C)CC5)c4n3)ccc2C1` [Example 2, 1-(2-((9-((1r,4r)-4-Methylcyclohexyl)-9H-pyrido[4′,3′:4,5]pyrrolo[2,3-d]pyrimidin-2-yl)amino)-7,8-dihydro-1,6-naphthyridin-6(5H)-yl)ethanone], the results for the concentration for half-maximal inhibition (IC50) (against CDK4/Cyclin D1; in the experiment with MOLM13 cells (setting [2]); in experiment [1]) were 4.5 nM, 22.5 nM and 3.2 nM, respectively.

In the case of `C[C@H]1CC[C@H](n2c3cnccc3c3cnc(Nc4ccc5c(n4)CCN(CCF)C5)nc32)CC1` [Example 9, N-(6-(2-Fluoroethyl)-5,6,7,8-tetrahydro-1,6-naphthyridin-2-yl)-9-((1r,4r)-4-methylcyclohexyl)-9H-pyrido[4′,3′:4,5]pyrrolo[2,3-d]pyrimidin-2-amine], the 50% inhibitory concentration (IC50) on CDK4/Cyclin D1 came out at 72.8 nM; with MOLM13 cells (setting [2]) it was 64.9 nM; in experiment [1], 3.4 nM.

Regarding `CC1CNCc2ccc(Nc3ncc4c5ccncc5n([C@H]5CC[C@H](C)CC5)c4n3)nc21` (stereo partly drawn) [Example 13, N-(8-Methyl-5,6,7,8-tetrahydro-1,6-naphthyridin-2-yl)-9-((1r,4r)-4-methylcyclohexyl)-9H-pyrido[4′,3′:4,5]pyrrolo[2,3-d]pyrimidin-2-amine], the results for the half-maximal inhibitory concentration (IC50) (against CDK4/Cyclin D1; in the experiment on MOLM13 cells (setting [2]); in experiment [1]) were 31.3 nM, 54.5 nM and 1.8 nM, respectively.

On to `COc1cc2c3cnc(Nc4ccc5c(n4)CCNC5)nc3n([C@H]3CC[C@H](C)CC3)c2cn1` [Example 19, 6-Methoxy-9-((1r,4r)-4-methylcyclohexyl)-N-(5,6,7,8-tetrahydro-1,6-naphthyridin-2-yl)-9H-pyrido[4′,3′:4,5]pyrrolo[2,3-d]pyrimidin-2-amine], for which the half-maximal inhibitory concentration (IC50) came out at 1790 nM against CDK4/Cyclin D1, 204 nM in the experiment on MOLM13 cells (setting [2]) and 33 nM in experiment [1].

Regarding `CC1CN(CCO)Cc2ccc(Nc3ncc4c5ccncc5n([C@H]5CC[C@H](C)CC5)c4n3)nc21` (stereo partly drawn) [Example 15, 2-(8-Methyl-2-((9-((1r,4r)-4-methylcyclohexyl)-9H-pyrido[4′,3′:4,5]pyrrolo[2,3-d]pyrimidin-2-yl)amino)-7,8-dihydro-1,6-naphthyridin-6(5H)-yl)ethanol], the IC50 against CDK4/Cyclin D1 is 20.3 nM; in the experiment on MOLM13 cells (setting [2]) it was 29.5 nM; in experiment [1] it was 3.1 nM.

Turning to `O=C(CO)N1CCc2nc(Nc3ncc4c5ccncc5n(C5CCCC5)c4n3)ccc2C1` [Example 22, 1-(2-((9-Cyclopentyl-9H-pyrido[4′,3′:4,5]pyrrolo[2,3-d]pyrimidin-2-yl)amino)-7,8-dihydro-1,6-naphthyridin-6(5H)-yl)-2-hydroxyethanone], the IC50 worked out at 36 nM against CDK4/Cyclin D1, 5.2 nM in the experiment with MOLM13 cells (setting [2]) and 0.65 nM in experiment [1].
